Reference: publication PMC4412158 (Nature chemical biology, 2014)

Biological target: T1, phosphoglycerate kinase 1 (hPGK1) (Homo sapiens, UniProt P00558)
T1 sequence (P00558 2-417): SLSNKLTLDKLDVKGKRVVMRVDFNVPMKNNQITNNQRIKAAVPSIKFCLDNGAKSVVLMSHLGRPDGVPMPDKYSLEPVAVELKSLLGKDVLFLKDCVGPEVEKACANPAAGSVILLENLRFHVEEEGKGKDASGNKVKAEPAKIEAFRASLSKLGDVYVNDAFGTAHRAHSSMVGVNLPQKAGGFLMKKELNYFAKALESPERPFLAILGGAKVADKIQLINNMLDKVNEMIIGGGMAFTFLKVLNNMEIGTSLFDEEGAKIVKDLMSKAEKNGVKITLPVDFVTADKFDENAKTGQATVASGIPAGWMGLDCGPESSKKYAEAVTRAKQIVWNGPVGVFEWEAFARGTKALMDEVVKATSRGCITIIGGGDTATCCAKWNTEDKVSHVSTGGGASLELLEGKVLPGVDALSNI
Experiment: co-crystal structure hPGK1-3PG-TZ at […] Å
Assay type: binding

SMILES: COc1cc2nc(N3CCN(C(=O)C4CCCO4)CC3)nc(N)c2cc1OC (racemic) [TZ, terazosin]
- co-crystal structure hPGK1-3PG-TZ at 2.1 Å: we obtained the ternary co-crystallization complexes for both the mouse and the human Pgk1-3PG-TZ
